Test results published in the NIST ThermoML archive (doi:10.1021/acs.jced.5b00288).
“And” between values parts separate entries of the source, which are not always exact repeats. Equal entries are not always repeated.

Experiment: excess molar enthalpy (molar enthalpy of mixing); xn = mol fraction of the nth substance listed
Conditions: 1060 K, 101 kPa, Liquid, Calvet calorimetry

[I][La]([I])[I] [lanthanum triiodide] + [I-].[K+]
Conditions	excess molar enthalpy
x1 = 0.048	-0.464 kcal/mol
x1 = 0.1	-0.973 kcal/mol
x1 = 0.152	-1.53 kcal/mol
x1 = 0.199	-1.64 kcal/mol and -1.93 kcal/mol
x1 = 0.246	-2.13 kcal/mol
x1 = 0.25	-1.76 kcal/mol
x1 = 0.304	-1.79 kcal/mol
x1 = 0.348	-1.89 kcal/mol
x1 = 0.354	-2.3 kcal/mol
x1 = 0.398	-1.93 kcal/mol

[I][La]([I])[I] [lanthanum triiodide] + [I-].[Na+]
Conditions	excess molar enthalpy [kcal/mol]
x1 = 0.0482	-0.189
x1 = 0.0991	-0.415
x1 = 0.1503	-0.462
x1 = 0.2	-0.678
x1 = 0.2477	-0.549
x1 = 0.296	-0.821
x1 = 0.3412	-0.655
x1 = 0.3968	-0.69
x1 = 0.3984	-0.763
x1 = 0.4454	-0.683
x1 = 0.4931	-0.497
x1 = 0.4966	-0.576
x1 = 0.5392	-0.605
